Results taken from US20060148876A1, “Nr3b1 nuclear receptor binding 3-substituted pyrazoles” (priority 2002, published 2006).
“Also recorded” adds a separate entry of the source.

What was measured:
MDA-MB-231 cells = experiment: Cell proliferation assay (CellTiter 96) in ER negative breast cancer cells; type: cell-based; details: 6 days treatment
Description: (§1) Cells were seeded in 96-well plates at a density of 15,000 (MDA-MB-231) or 10,000 (T47D) cells/100 μl/well in phenol red-free DMEM (Gibco-BRL) containing 10% (MDA-MB-231) or 2% (T47D) charcoal dextran treated FBS (Perbio Science GmbH). Treatment media containing either 0.1% DMSO (control) or 0.1% DMSO with increasing concentrations of compounds (as indicated) were added on the following day and replaced at 72 h intervals until the end of the experiment. At 6 days (MDA-MB-231) or 8 days (T47D) after initiation of the treatment a colorimetric proliferation assay was performed using CellTiter 96 Aqueous nonradioactive proliferation assay as directed by the manufacturer (Promega). Cell proliferation rates were measured as absorbance of the formazan product at 490 nm. Values are expressed as percentage of control (DMSO) and represent the means of three replicates.

T47D cells = experiment: Cell proliferation assay (CellTiter 96) in ER positive breast cancer cells; type: cell-based; details: 8 days treatment, 1 nM to 100 nM
Description: as §1

human ERR alpha (NR3B1) = experiment: In vitro LANCE (TR-FRET) screening for compounds which influence ERRa binding to coactivator SRC1 peptide; type: biochemical; details: see figures
Description: The present invention relates to a compound as described above wherein said compounds is capable of binding the NR3B1 receptor protein or a portion thereof according to SEQ ID NO. 1 (cf. FIG. 3 A to D) or a mammalian homologue thereof. The claimed compound can bind to the NR3B1 receptor protein or a portion thereof in a mixture comprising 10-200 ng of NR3B1 receptor protein or a portion thereof, preferably the ligand binding domain, 20 mM Tris/HCl at pH 7.9; 60 mM KCl; 5 mM MgCl2; 160 ng/μl BSA in a total volume of preferably about 25 μl.
For screening purposes a fragment of the open reading frame of human ERR alpha (NR3B1-(Acc. No: NM_004451)) encoding aminoacids […] was amplified by standard RT PCR procedures (see figures; SEQ ID NO. 1 and 2). […]
For screening of compound libraries as provided for by the methods shown below in the examples for substances which influence the ERRa/SRC1 interaction, the Perkin Elmer LANCE technology was applied. […] For ease of handling and reduction of background from compound fluorescence LANCE technology makes use of generic fluorophore labels and time resoved detection (for detailed description see Hemmilä I, Blomberg K and Hurskainen P, Time-resolved resonance energy transfer (TRFRET) principle in LANCE, Abstract of Papers Presented at the 3 rd Annual Conference of the Society for Biomolecular Screening, September, California (1997)). […]

active as antagonist of the NR3B1 human nuclear receptor (human ERR alpha (NR3B1)) | Structure (SMILES) | effect on proliferation of MDA-MB-231 cells (ER negative) (MDA-MB-231 cells) | effect on proliferation of T47D cells (ER positive) (T47D cells) | effect on proliferation of T47D cells (ER positive) (T47D cells; listed as E2)
 | C[C@]12CC[C@@H]3c4ccc(O)cc4CC[C@H]3[C@@H]1CC[C@@H]2O [17β-estradiol] | did not | stimulated | stimulate the growth
 | CC/C(=C(/CC)c1ccc(O)cc1)c1ccc(O)cc1 [DES, Diethylstilbestrol] | inhibited proliferation; also recorded: inhibit growth | stimulated; also recorded: stimulate the growth | 
active as antagonist | Cc1ccc(C)c(-c2cc(-c3ccc(O)cc3)nn2C)c1 [formula 5] |  |  | 
active as antagonist | Cc1cc(C)cc(-n2nc(-c3ccc(O)cc3)cc2-c2ccc(C)o2)c1 [formula 6] |  |  | 
